Assay results as given in patent publication US20230255906A1, “Targeting Serpin B9 in Cancer” (The Brigham and Women`s Hospital, Inc., priority 2020, published 2023).
pKd: −log10 of the molar value.

Columns and labels:
MBP-Sb9 [1] = assay: Thermal stability assay (TSA) fragment screen; type: binding; conditions: 5000 to 21 μM
Protocol: FIG. 4A. The upper panels show the TSA results of the MBP-Sb9 protein incubated with 5 mM 3,4-dihydroxybenzoic acid (3,4-DHBA; left) and 3-oxo-1-indancarboxylic acid (right), or with 2.5% DMSO. The thermal shifts of the compounds 3,4-dihydroxybenzoic acid and 3-oxo-1-indancarboxylic acid are shown in a thick dark line against a baseline control shown as a thin gray line. The bottom panels show the TSA results of the MBP-Sb9 protein incubated with 3,4-dihydroxybenzoic acid (left) or 3-oxo-1-indancarboxylic acid (right) at different concentrations, including 5000, 1667, 556, 185, 62, and 21 μM. The concentration-response curves are plotted in a black/gray color scale (higher intensity is higher concentration) and the straight line plots represent the compound background signal.
TSA is an analytic tool to estimate the overall stability of a protein by monitoring the shift in its melting temperature upon changing the buffer conditions or titrating various ligands. As the protein unfolds with increasing temperature in a thermal cycler (CFX384 Touch Real-Time PCR Detection System), SYPRO orange dye binds to the exposed hydrophobic core and fluoresces, leading to the signal that is measured in comparison to temperature to produce a melt curve. […] Dye was added at 2×strength, and the readings were performed from 25° C. to 95° C. at 0.5° C. intervals. […]

SERPINB9 [2] = target: T1, SERPINB9 (Homo sapiens, UniProt P50453); assay: Ligand-detected NMR (DLB, STD, CPMG-R2); type: binding
T1 construct: A construct of human SERPINB9 covering residues 2-376 in the pFastBacl vector; made in house; host or cells: insect Tni (Trichoplusia ni) cells, baculovirus
T1 sequence (P50453 2-376): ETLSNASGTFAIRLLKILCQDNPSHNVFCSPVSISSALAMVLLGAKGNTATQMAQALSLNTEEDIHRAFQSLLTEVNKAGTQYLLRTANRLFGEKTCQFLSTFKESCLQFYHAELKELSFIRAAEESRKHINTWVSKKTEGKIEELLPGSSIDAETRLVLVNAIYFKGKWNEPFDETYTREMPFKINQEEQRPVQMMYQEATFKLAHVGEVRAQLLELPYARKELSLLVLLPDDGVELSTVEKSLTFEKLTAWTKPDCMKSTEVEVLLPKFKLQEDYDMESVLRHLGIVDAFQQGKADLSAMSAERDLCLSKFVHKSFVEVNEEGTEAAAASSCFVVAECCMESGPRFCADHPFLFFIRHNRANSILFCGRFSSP
Excerpt: Ligand-focused NMR. To test the binding of Compound 27 and Compound 225 to SERPINB9, we used three ligand-detected nuclear magnetic resonance (NMR) methods: differential line broadening (DLB), saturation transfer difference (STD), and Carr-Purcell-Meiboom-Gill-transverse relaxation rate (CPMG-R2). […] Second, on-resonance saturation of SERPINB9 decreased the intensity of compound peaks in the STD experiment, indicating transmission of magnetization energy from SERPINB9 to proximal ligands. Finally, as ligands engaging the target protein relax faster (compared to free small molecules that have slow transverse relaxation rates in CPMG-R2 experiments), we saw a decreased relaxation time in the presence of a protein directly indicating binding of the ligand to that protein.

SERPINB9 [3] = target: T1, SERPINB9; assay: Isothermal titration calorimetry (ITC); type: binding; conditions: 20 μM SERPINB9 titrated with 200 μM compound, single site model
Protocol: In an attempt to produce a soluble variant of Sb9, a construct was designed in which a maltose-binding protein (MBP) was added at the N-terminus (FIG. 4B). Sb9 was soluble in multiple growth media conditions using this strategy. The condition (1 mM IPTG, 37° C., 3 h) for best expression was selected for biomass production with 5 L culture. The cells were lysed and clarified by centrifugation. The fusion protein was then captured by Ni-NTA affinity purification, such that it was eluted using high concentration imidazole. Then, the resulting protein was further purified by anionic exchange chromatography using a MonoQ column and a NaCl gradient for elution. An amount of 31.4 mg protein was obtained. The purified Sb9 protein was characterized by SDS-PAGE and MALDI-TOF mass spectrometry (MS). A construct of human SERPINB9 covering residues 2-376 in the pFastBacl vector (Invitrogen) was overexpressed in insect Tni (Trichoplusia ni.) cells adapted for suspension culture in ESF921 medium (Expression systems). Cells were grown at 27° C. to a density of ˜2 million cells per mL, infected with baculovirus containing SERPINB9 construct, collected by centrifugation around 60 hrs post-infection, and stored at −80° C. […]

4T1 breast tumors = assay: 4T1 breast tumor model in BALB/c mice; type: in vivo, mouse; conditions: i.p. twice a day 14 days
Protocol: (§1) Mice were anesthetized with isoflurane, and tumor cell lines (B16, A375, and 4T1) were gently injected subcutaneously in the flanks or mammary glands of mice. One hundred thousand cells (1×10^5 cells) were injected per mouse for most of the experiments. However, twenty-five thousand cells (25×10^3 cells) were injected per mouse for the experiments using the compound of Formula (III). Upon 4 hrs post-implantation, 300 μg of the compound of Formula (III) was administered twice a day intraperitoneally for 14 days. Tumor growth was monitored three times per week by digital caliper (Fisherbrand™ Traceable™ Digital Calipers).
Sb9 is highly expressed in human primary breast tumor cells (FIG. 6D) and in the stromal cells within the TME (FIGS. 6D-6E). Whether the compound of Formula (III) could be used to treat mice implanted with 4T1 breast tumor cells was therefore determined. […] Treatment with the compound of Formula (III) increased the median survival time (MST) of mice bearing 4T1 breast tumors and receiving treatment with the compound of Formula (III) as compared to mice bearing 4T1 breast tumors and not receiving treatment (MST=28 days vs MST=22 days, respectively) (FIG. 6G).
For mouse Breast Cancer model, 1×10^5 4T1 cells were subcutaneously implanted into the fourth mammary pad of BABL/c mice, and mice were separated randomly into three groups: Control, compound of Formula (I), and compound of Formula (II). In the compound of Formula (I) group, mice were treated with the compound of Formula (I) for 14 days consecutively ([…], i.p, twice a day). In the compound of Formula (II) group, mice were administrated the compound of Formula (II) 14 days consecutively (300 μg/mouse, i.p, twice a day). Tumor sizes were measured every 3 days from day 5 post-tumor implantation and calculated with formula length×width^2/2.

MBP-Sb9 [4] = target: T2, MBP-Sb9 (Homo sapiens, UniProt P50453); assay: Saturation-Transfer Difference (STD) NMR assay; type: binding; conditions: 420 μM compound, 45 μM Sb9 protein, PBS pH 7.0, 25° C.
T2 construct: made in house
T2 sequence (P50453 2-376): T1 sequence (P50453 2-376)
Excerpt: The Saturation-Transfer Difference (STD) NMR assay was used to evaluate the binding of the compound of Formula (III) to Sb9. […] The saturation period was 3.0 seconds with irradiation at 0 ppm (on-resonance excitation) and −20 ppm (off-resonance excitation). The number of scans was 160 for the on and off-resonance spectra, respectively. Spectra were processed using Topspin software and apodized with exponential multiplication with 1.0 Hz line-broadening.
The Saturation-Transfer Difference (STD) NMR assay was used to evaluate the binding of the compounds of Formulas (I) and (II) to Sb9. […] The saturation period was 3.0 seconds with irradiation at 0.7 ppm (on-resonance excitation) and 20 ppm (off-resonance excitation). The number of scans was 800. The spectra were processed using Topspin software with 1.0 Hz line-broadening.
The Saturation-Transfer Difference (STD) NMR assay as described herein was used to evaluate the binding of the compound of Formula (III) to Sb9.

cancer cells = assay: Caspase-3 immunofluorescence in cancer cells; type: cell-based; conditions: 200 μM, 48 hrs
Protocol: 1×10^4 cancer cells were seeded in an 8-well chamber and treated with 200 μM of the compounds of Formulas (I) and (II) for 48 hrs. Controls were the equal amount of DMSO. Cells were stained with anti-caspase3. DAPI was used to counterstain the cell nuclei. The stained tissue sections were visualized using an EVOS™ FL Auto 2 Imaging System.

[5] = test system: B16-WT mouse melanoma tumors; assay: B16 melanoma tumor model in C57BL/6 mice; type: in vivo
Protocol: as §1
The anti-tumor activity of the compound of Formula (III) in vivo was assessed. […] Treatment with the compound of Formula (III) increased the median survival time (MST) of mice bearing B 16-WT mouse melanoma tumors and receiving treatment with the compound of Formula (III) as compared to mice bearing B16-WT melanoma tumors and not receiving treatment (MST=39 days vs MST=26 days, respectively) (FIG. 51B). Next, the effect of the compound of Formula (III) on tumor immunity was examined.
The efficacy of the compound of Formula (III) was assessed in C57BL/6J mice (FIG. 18). B16 mouse melanoma cells were implanted subcutaneously into the right flanks of C57BL/6J mice, and the mice were randomized into three groups: (1) no treatment (control), (2) treatment with anti-PD1, and (3) treatment with Formula (III). The mice in the anti-PD1 group received 200 μg of anti-PD1 iv every 3 days, and those in the Formula (III) group received 300 μg of Formula (III) twice a day consecutively for 14 days.
A survival study using the compound of Formula (IV) in mice harboring B16 melanoma was performed. Mice implanted with B16 tumors were treated with the compound of Formula (IV) (n=8) and compared to a control group having B16 tumors and not receiving treatment with the compound of Formula (IV) (n=8).

O=C1CC(C(=O)O)c2ccccc21 (centres unmarked) [3-oxo-1-indancarboxylic acid]
Tm1 shift (MBP-Sb9 [1]): dose-dependent Tm1 shift

CCN(C)C(=O)c1ccc2nc(-c3ccccc3)oc2c1 [Compound 27, N-ethyl-N-methyl-2-phenyl-1,3-benzoxazole-6-carboxamide]
binding to SERPINB9 by ligand-detected NMR (SERPINB9 [2]): SERPINB9 binders
pKd (SERPINB9 [3]): 4.67

CCOc1ccc(C(=O)NCc2ccccc2)cc1O [Compound 227, N-benzyl-4-ethoxy-3-hydroxybenzamide]
binding to SERPINB9 by ligand-detected NMR (SERPINB9 [2]): SERPINB9 binders
pKd (SERPINB9 [3]): 4.54

COC(=O)c1cc(N)c(O)cc1NC(=O)OC(C)(C)C [Formula (I), methyl 5-amino-2-((tert-butoxycarbonyl)amino)-4-hydroxybenzoate]
tumor size vs Control group (4T1 breast tumors; Day 11 post-tumor implantation): significantly decreased
tumor size vs Control group (4T1 breast tumors; Day 14 post-tumor implantation): significantly decreased
binding to MBP-Sb9 by STD NMR (MBP-Sb9 [4]): confirmed the binding activities
caspase-3 expression compared to DMSO (cancer cells): significantly increased caspase-3 expression

COC(=O)c1cc(N)c(O)cc1NC(=O)c1ccccc1 [Formula (II), methyl 5-amino-2-benzamido-4-hydroxybenzoate]
tumor size vs Control group (4T1 breast tumors; Day 14 post-tumor implantation): significantly decreased
binding to MBP-Sb9 by STD NMR (MBP-Sb9 [4]): confirmed the binding activities
caspase-3 expression compared to DMSO (cancer cells): significantly increased caspase-3 expression
increase of caspase-3 expression, comparison between compounds (cancer cells): higher than the group treated with the compound of Formula (I)

NC(=O)c1ccc(O)c(O)c1 [Formula (IV), 3,4-dihydroxybenzamide]
binding to MBP-Sb9 by STD NMR (MBP-Sb9 [4]): clearly show inter-molecular interaction of all aromatic peaks
tumor size vs Control group ([5]; Day 22 post-tumor implantation (FIG. 17A)): decreased
melanoma progression in vivo ([5]; mice bearing B16 tumors, n=8 (FIG. 17A)): suppressed melanoma progression
median survival time (MST) ([5]; mice bearing B16 tumors, n=8 (FIG. 17B)): 34 days
